From patent publication US20250382261A1 (The Broad Institute, Inc., priority 2021, published 2025)

Experiments:
[1] = tested on: A. baumannii (ATCC 17978); assay: Checkerboard potentiation assay with novobiocin; assay type: cell-based
Experimental: (§1) Bacterial strains and culture conditions. The following bacterial strains were used within this study; A. baumannii (ATCC 17978), K. pneumoniae (ATCC 43816), K. pneumoniae (ATCC 43816, expressing pGDP2:mcr-1), P. aeruginosa (PA01). Bacterial growth was in cation-adjusted Mueller-Hinton broth (MHB) at 37° C., and inoculum was prepared according to CLSI protocol (CLSI 2015).
(§2) Potentiation assays. Checkerboard analyses were conducted with each drug serially diluted at eight concentrations to create an 8×8 matrix. At least two biological replicates were done for each combination, and the means were used for FIC calculation. The FIC for each drug was calculated by dividing the concentration of the drug in the presence of codrug in a combination for a well showing <10% growth by the MIC for that drug alone. The FIC index (FICI) is the sum of the two FICs, with an FIC index≤0.5 deemed synergistic.

[2] = tested on: K. pneumoniae (ATCC 43816); assay: Checkerboard potentiation assay with novobiocin; assay type: cell-based
Experimental: as §1, §2
(§3) To probe the spectrum of activity of the present analogs beyond A. baumannii, their interactions with novobiocin were assessed against the high-priority Gram-negative pathogens Klebsiella pneumoniae and P. aeruginosa (FIG. 5).

[3] = tested on: P. aeruginosa (PA01); assay: Checkerboard potentiation assay with novobiocin; assay type: cell-based
Experimental: as §1, §2, §3

[4] = tested on: A. baumannii; assay: Fold reduction of antibiotic MIC at fixed adjuvant concentration; assay type: cell-based; conditions: pentamidine or P35 at 50 μg/mL
Experimental: as §1, §2

[5] = In vitro metabolic stability, dog; assay type: in vitro ADME; conditions: read-out: In vitro metabolic stability (t1/2, min), dog
[6] = target: T1, CYP1A2 (Homo sapiens, UniProt P05177); assay: P450 inhibition; assay type: in vitro ADME; conditions: read-out: P450 Inhibition CYP 1A2 (IC50)
T1 construct: Cyprotex Ltd. (contract laboratory that ran the assay)
T1 sequence (P05177 1-516): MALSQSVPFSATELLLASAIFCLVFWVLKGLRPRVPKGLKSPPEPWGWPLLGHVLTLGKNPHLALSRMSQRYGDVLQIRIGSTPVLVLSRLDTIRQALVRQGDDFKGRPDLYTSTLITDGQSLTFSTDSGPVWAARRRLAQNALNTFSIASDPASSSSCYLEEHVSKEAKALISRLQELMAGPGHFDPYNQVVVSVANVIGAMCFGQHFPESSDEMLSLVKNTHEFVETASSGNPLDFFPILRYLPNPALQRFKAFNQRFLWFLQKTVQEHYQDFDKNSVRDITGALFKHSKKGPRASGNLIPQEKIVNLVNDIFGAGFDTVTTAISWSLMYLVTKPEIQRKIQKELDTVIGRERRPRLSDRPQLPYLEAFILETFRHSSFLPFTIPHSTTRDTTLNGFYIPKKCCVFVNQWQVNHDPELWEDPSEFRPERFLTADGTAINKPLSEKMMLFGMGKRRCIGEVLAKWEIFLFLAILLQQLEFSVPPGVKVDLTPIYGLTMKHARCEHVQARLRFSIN
Experimental: (§4) P450 inhibition. An 8-point dose-response of P35 (0, 0.1, 0.25, 1, 2.5, 10, 25 μM) was tested against the following cytochrome P450 (CYP) isoforms CYP3A4, CYP2C9, CYP2D6, CYP1A2, and CYP2C19. Reduction in metabolite formation was quantified using LC-MS/MS (with the exception of ethoxyresorufin for CYP1A2) to calculate an IC50 value. This assay was performed by Cyprotex Ltd.

[7] = target: T2, CYP2C19 (Homo sapiens, UniProt P33261); assay: P450 inhibition; assay type: in vitro ADME; conditions: read-out: P450 Inhibition CYP 2C19 (IC50)
T2 construct: Cyprotex Ltd. (contract laboratory that ran the assay)
Experimental: as §4

[8] = target: T3, CYP2C9 (Homo sapiens, UniProt P11712); assay: P450 inhibition; assay type: in vitro ADME; conditions: read-out: P450 Inhibition CYP 2C9 (IC50)
T3 construct: Cyprotex Ltd. (contract laboratory that ran the assay)
Experimental: as §4

[9] = target: T4, CYP2D6 (Homo sapiens, UniProt P10635); assay: P450 inhibition; assay type: in vitro ADME; conditions: read-out: P450 Inhibition CYP 2D6 (IC50)
T4 construct: Cyprotex Ltd. (contract laboratory that ran the assay)
Experimental: as §4

[10] = target: T5, CYP3A4 (Homo sapiens, UniProt P08684); assay: P450 inhibition; assay type: in vitro ADME; conditions: read-out: P450 Inhibition CYP 3A4 (IC50)
T5 construct: Cyprotex Ltd. (contract laboratory that ran the assay)
Experimental: as §4

[11] = in vivo, 1 mg/kg
Experimental: (§5) Plasma samples were taken from 3 mice per time point (5, 15, 30 min; 1, 2, 4, 6 and 8 h post-dose). An aliquot of 2 μL sample was protein precipitated with 60 μL methanol, the mixture was vortex-mixed well and centrifuged at 13000 rpm for 10 min at 4° C. 2 μL supernatant was injected for LC-MS/MS analysis. The mean plasma concentration and the standard deviation from all 3 animals within each time point were calculated. PK parameters were calculated with a non-compartmental analysis. The mean plasma concentrations from all 3 mice at each time point were used in the calculations.

[12] = in vivo; conditions: female, C57BL/6, mouse, in vivo, iv, 1 mg/kg
Experimental: as §5

T3 sequence (P11712 whole entry): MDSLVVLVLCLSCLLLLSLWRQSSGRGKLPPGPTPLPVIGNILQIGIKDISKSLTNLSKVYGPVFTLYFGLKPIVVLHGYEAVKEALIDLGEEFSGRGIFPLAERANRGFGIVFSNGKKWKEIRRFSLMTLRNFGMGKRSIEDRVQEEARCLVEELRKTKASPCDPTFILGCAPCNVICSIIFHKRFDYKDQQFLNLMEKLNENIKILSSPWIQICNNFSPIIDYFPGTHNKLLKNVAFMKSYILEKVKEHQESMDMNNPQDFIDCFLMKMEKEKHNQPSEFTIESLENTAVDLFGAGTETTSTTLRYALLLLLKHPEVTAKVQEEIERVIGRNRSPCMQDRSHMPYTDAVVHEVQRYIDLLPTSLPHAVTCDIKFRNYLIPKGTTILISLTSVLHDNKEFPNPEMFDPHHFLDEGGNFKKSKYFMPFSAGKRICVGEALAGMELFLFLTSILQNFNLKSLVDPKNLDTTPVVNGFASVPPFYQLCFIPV
T5 sequence (P08684 whole entry): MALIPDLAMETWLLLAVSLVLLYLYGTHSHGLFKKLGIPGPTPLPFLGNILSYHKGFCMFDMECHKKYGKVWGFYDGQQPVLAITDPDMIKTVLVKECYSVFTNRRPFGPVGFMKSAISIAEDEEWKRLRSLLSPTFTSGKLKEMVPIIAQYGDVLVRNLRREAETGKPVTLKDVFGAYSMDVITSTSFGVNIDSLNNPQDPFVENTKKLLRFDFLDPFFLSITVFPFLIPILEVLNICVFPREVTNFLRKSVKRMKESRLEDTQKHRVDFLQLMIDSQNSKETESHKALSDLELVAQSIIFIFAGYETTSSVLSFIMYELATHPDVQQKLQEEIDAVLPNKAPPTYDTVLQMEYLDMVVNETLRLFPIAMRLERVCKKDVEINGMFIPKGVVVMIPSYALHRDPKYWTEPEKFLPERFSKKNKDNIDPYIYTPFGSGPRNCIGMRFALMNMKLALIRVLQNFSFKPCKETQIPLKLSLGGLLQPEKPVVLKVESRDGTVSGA
T4 sequence (P10635 whole entry): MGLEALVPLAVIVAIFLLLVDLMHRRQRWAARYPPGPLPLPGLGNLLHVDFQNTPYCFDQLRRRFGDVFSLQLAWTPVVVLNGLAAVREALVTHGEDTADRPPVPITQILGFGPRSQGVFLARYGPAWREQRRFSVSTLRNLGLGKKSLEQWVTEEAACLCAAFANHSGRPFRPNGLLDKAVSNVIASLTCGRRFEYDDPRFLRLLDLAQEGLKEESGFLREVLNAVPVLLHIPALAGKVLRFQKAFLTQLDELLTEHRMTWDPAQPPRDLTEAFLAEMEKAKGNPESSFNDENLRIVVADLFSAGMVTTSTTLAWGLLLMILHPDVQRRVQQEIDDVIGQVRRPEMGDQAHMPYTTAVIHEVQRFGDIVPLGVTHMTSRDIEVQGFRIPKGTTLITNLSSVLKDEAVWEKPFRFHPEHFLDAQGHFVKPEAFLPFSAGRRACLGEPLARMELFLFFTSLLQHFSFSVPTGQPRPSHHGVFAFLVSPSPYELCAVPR
T2 sequence (P33261 whole entry): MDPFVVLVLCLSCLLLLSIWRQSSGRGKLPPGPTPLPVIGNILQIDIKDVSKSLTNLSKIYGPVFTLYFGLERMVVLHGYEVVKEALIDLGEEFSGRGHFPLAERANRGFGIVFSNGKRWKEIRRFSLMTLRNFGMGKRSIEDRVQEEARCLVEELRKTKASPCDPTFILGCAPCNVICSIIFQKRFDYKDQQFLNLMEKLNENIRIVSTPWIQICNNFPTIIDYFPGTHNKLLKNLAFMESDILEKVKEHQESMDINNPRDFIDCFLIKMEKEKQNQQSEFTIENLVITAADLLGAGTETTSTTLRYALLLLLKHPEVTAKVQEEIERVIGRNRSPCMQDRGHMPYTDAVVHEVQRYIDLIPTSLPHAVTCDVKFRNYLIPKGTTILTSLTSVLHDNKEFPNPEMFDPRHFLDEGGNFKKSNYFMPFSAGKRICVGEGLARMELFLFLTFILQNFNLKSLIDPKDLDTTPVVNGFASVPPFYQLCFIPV

With `N=C(N)c1ccc(OCCN(CCOc2ccc(C(=N)N)cc2)c2ccccc2)cc1` [Analog P35] as the molecule, how does the “FICI with novobiocin in presence of 20 mM Mg2+” value ([1]; 20 mM Mg2+ added to growth media) read?
The value was 0.56.

And the “FICI AB” value ([1]; with novobiocin)?
The value was 0.094.

What about the “FICI KP” value [2] of the same molecule?
Its value is 0.12.

What about the “FICI PA” value [3] of the same molecule?
The value was 0.3125.

And the “Average Fold-reduction in MIC, Ampicillin” value ([4]; MIC of ampicillin in A. baumannii)?
Its value is 1 fold.

And the “Average Fold-reduction in MIC, Bacitracin” value ([4]; MIC of bacitracin in A. baumannii)?
Its value is 2 fold.

And the “Average Fold-reduction in MIC, Chloramphenicol” value ([4]; MIC of chloramphenicol in A. baumannii)?
Its value is 2 fold.

What about the “Average Fold-reduction in MIC, Clarithromycin” value ([4]; MIC of clarithromycin in A. baumannii) of the same molecule?
The value was 384 fold.

And the “Average Fold-reduction in MIC, Doxycycline” value ([4]; MIC of doxycycline in A. baumannii)?
The value was 4 fold.

And the “Average Fold-reduction in MIC, Erythromycin” value ([4]; MIC of erythromycin in A. baumannii)?
The value was 32 fold.

What about the “Average Fold-reduction in MIC, Fusidic Acid” value ([4]; MIC of fusidic acid in A. baumannii) of the same molecule?
Its value is 341.33 fold.

And the “Average Fold-reduction in MIC, Linezolid” value ([4]; MIC of linezolid in A. baumannii)?
The value was 8 fold.

What about the “Average Fold-reduction in MIC, Meropenem” value ([4]; MIC of meropenem in A. baumannii) of the same molecule?
The value was 4 fold.

What about the “Average Fold-reduction in MIC, Mupirocin” value ([4]; MIC of mupirocin in A. baumannii) of the same molecule?
The value was 4 fold.

And the “Average Fold-reduction in MIC, Nafcillin” value ([4]; MIC of nafcillin in A. baumannii)?
Its value is 1.5 fold.

What about the “Average Fold-reduction in MIC, Nalidixic Acid” value ([4]; MIC of nalidixic acid in A. baumannii) of the same molecule?
The value was 4 fold.

What about the “Average Fold-reduction in MIC, Novobiocin” value ([4]; MIC of novobiocin in A. baumannii) of the same molecule?
The value was 512 fold.

And the “Average Fold-reduction in MIC, Oxacillin” value ([4]; MIC of oxacillin in A. baumannii)?
The value was 1 fold.

And the “Average Fold-reduction in MIC, Rifampicin” value ([4]; MIC of rifampicin in A. baumannii)?
Its value is 384 fold.

What about the “Average Fold-reduction in MIC, Rifaximin” value ([4]; MIC of rifaximin in A. baumannii) of the same molecule?
The value was 256 fold.

And the “Average Fold-reduction in MIC, Roxithromycin” value ([4]; MIC of roxithromycin in A. baumannii)?
Its value is 341.33 fold.

What about the “Average Fold-reduction in MIC, Thiostrepton” value ([4]; MIC of thiostrepton in A. baumannii) of the same molecule?
Its value is 170.67 fold.

What about the “Average Fold-reduction in MIC, Trimethoprim” value ([4]; MIC of trimethoprim in A. baumannii) of the same molecule?
Its value is 5.33 fold.

And the “Average Fold-reduction in MIC, Vancomycin” value ([4]; MIC of vancomycin in A. baumannii)?
Its value is 4 fold.

And the half-life [5]?
The half-life was 137 min.

What about the IC50 [6] of the same molecule?
Its IC50 is over 50 µM.

And the IC50 [7]?
Its IC50 is over 50 µM.

What about the IC50 [8] of the same molecule?
The IC50 was over 50 µM.

And the IC50 [9]?
The IC50 was 14.8 µM.

And the IC50 [10]?
The IC50 was over 50 µM.

And the “AUCExtra (%)” value ([11]; female, C57BL/6, mouse, iv)?
Its value is 6.74%.

And the “AUMCExtra (%)” value ([11]; female, C57BL/6, mouse, iv)?
The value was 37.7%.

And the “Tlast” value ([11]; female, C57BL/6, mouse, iv)?
The value was 8.00 h.

What about the “Adverse effects after single intravenous dose” value ([11]; mouse) of the same molecule?
The value was “no adverse effects”.

What about the AUC(0-inf) [12] of the same molecule?
Its AUC(0-inf) is 55.3 ng·h/mL.

What about the AUC(0-t) [12] of the same molecule?
Its AUC(0-t) is 51.6 ng·h/mL.

What about the C0 [12] of the same molecule?
The C0 was 238 ng/mL.

What about the MRT inf [12] of the same molecule?
The MRT inf was 1.85 h.

And the MRT last [12]?
Its MRT last is 1.24 h.

What about the Vd [12] of the same molecule?
Its Vd is 33.4 L/kg.

What about the clearance [12] of the same molecule?
The clearance was 301 mL/min/kg.

And the half-life [12]?
Its half-life is 1.61 h.
